Reference: patent US10208015B2, “Aryl-triazolyl pyridines as pest control agents” (BAYER ANIMAL HEALTH GMBH, priority 2014, dated 2019)

Legend:
Ctenocephalides felis [1] = test: Ctenocephalides felis in vitro contact test with adult cat fleas; format: in vivo; details: application rate 500 g/ha (5 μg/cm^2), after 48 h
Method: Ctenocephalides felis—In Vitro Contact Tests with Adult Cat Fleas
(§1) For the coating of the test tubes, 9 mg of active compound are first dissolved in 1 ml of acetone p.a. and then diluted to the desired concentration with acetone p.a. 250 μl of the solution are distributed homogeneously on the inner walls and the base of a 25 ml test tube by turning and rocking on an orbital shaker (rocking rotation at 30 rpm for 2 h). With 900 ppm active compound solution and internal surface 44.7 cm^2, given homogeneous distribution, an area-based dose of 5 μg/cm^2 is achieved.
After the solvent has evaporated off, the tubes are populated with 5-10 adult cat fleas (Ctenocephalides felis), sealed with a perforated plastic lid and incubated in a horizontal position at room temperature and ambient humidity. After 48 h, efficacy is determined. To this end, the test tubes are stood upright and the fleas are knocked to the base of the tube. Fleas which remain motionless at the base or move in an uncoordinated manner are considered to be dead or moribund.
100% efficacy means that all the fleas were dead or moribund. 0% efficacy means that no fleas were harmed.

Phaedon cochleariae = Phaedon cochleariae spray test; format: in vivo; details: application rate 100 g/ha, after 7 days
Method: Phaedon Cochleariae—Spray Test
(§2) • Solvent: 78.0 parts by weight of acetone • 1.5 parts by weight of dimethylformamide • Emulsifier: alkylaryl polyglycol ether
(§3) To produce a suitable preparation of active compound, 1 part by weight of active compound is dissolved using the stated parts by weight of solvent and made up with water containing an emulsifier concentration of 1000 ppm until the desired concentration is attained. To produce further test concentrations, the preparation is diluted with emulsifier-containing water.
After 7 days, the efficacy in % is determined. 100% means that all the beetle larvae have been killed; 0% means that no beetle larvae have been killed.

[2] = logP by HPLC on reversed-phase column (C18), EEC Directive 79/831 Annex V.A8; format: physicochemical; details: HPLC, C18, acetonitrile (0.1% formic acid)/water (0.09% formic acid) gradient
Ctenocephalides felis [3] = test: Ctenocephalides felis oral test; format: in vivo; details: application rate 100 ppm in citrated cattle blood, after 2 days
Source text: Ctenocephalides felis—Oral Test • Solvent: dimethyl sulphoxide […] Dilution with citrated cattle blood gives the desired concentration. About 20 unfed adult cat fleas (Ctenocephalides felis) are placed into a chamber which is closed at the top and bottom with gauze. A metal cylinder whose bottom end is closed with parafilm is placed onto the chamber. The cylinder contains the blood/active compound preparation, which can be imbibed by the fleas through the parafilm membrane.

[4] = test system: Boophilus microplus Parkhurst strain, SP-resistant; test: Boophilus microplus dip test; format: in vivo; details: application rate 100 ppm, assessed after 7 days
Method: Boophilus microplus—Dip Test
• Test animals: cattle ticks (Boophilus microplus) Parkhurst strain, SP-resistant • Solvent: dimethyl sulphoxide
10 mg of active compound are dissolved in 0.5 ml of dimethyl sulphoxide. To produce a suitable formulation, the active compound solution is diluted with water to the concentration desired in each case.
This active compound preparation is pipetted into tubes. 8-10 engorged adult female cattle ticks (Boophilus microplus) are transferred into a further tube with holes. The tube is immersed into the active compound preparation, and all the ticks are completely wetted. After the liquid has run out, the ticks are transferred on filter discs into plastic dishes and stored in a climate-controlled room.
Efficacy is assessed after 7 days by laying of fertile eggs. Eggs which are not visibly fertile are stored in a climate-controlled cabinet until the larvae hatch after about 42 days. An efficacy of 100% means that none of the ticks has laid any fertile eggs; 0% means that all the eggs are fertile.

Boophilus microplus = Boophilus microplus injection test; format: in vivo; details: application rate 20 μg/animal, assessed after 7 days
Method: Boophilus microplus—Injection Test • Solvent: dimethyl sulphoxide […] The animals are transferred into dishes and kept in a climate-controlled room. Efficacy is assessed after 7 days by laying of fertile eggs. Eggs which are not visibly fertile are stored in a climate-controlled cabinet until the larvae hatch after about 42 days.

Spodoptera frugiperda = Spodoptera frugiperda spray test; format: in vivo; details: application rate 100 g/ha, after 7 days
Method: Spodoptera Frugiperda—Spray Test
as §2, §3
Leaf discs of maize (Zea mays) are sprayed with an active compound preparation of the desired concentration and, after drying, populated with caterpillars of the armyworm (Spodopterafrugiperda).
After 7 days, the efficacy in % is determined. 100% means that all the caterpillars have been killed; 0% means that no caterpillars have been killed.

Tetranychus urticae = Tetranychus urticae spray test, OP-resistant; format: in vivo; details: application rate 100 g/ha, after 6 days
Method: Tetranychus Urticae—Spray Test, OP-Resistant
as §2
To produce further test concentrations, the preparation is diluted with emulsifier-containing water.
After 6 days, the efficacy in % is determined. 100% means that all the spider mites have been killed; 0% means that none of the spider mites have been killed.

Lucilia cuprina = Lucilia cuprina test; format: in vivo; details: application rate 100 ppm, L1 larvae, after 2 days
Method: (§4) • Solvent: dimethyl sulphoxide
(§5) To produce a suitable preparation of active compound, 10 mg of active compound are mixed with 0.5 ml of dimethyl sulphoxide, and the concentrate is diluted with water to the desired concentration.
About 20 L1 larvae of the Australian sheep blowfly (Lucilia cuprina) are transferred into a test vessel containing minced horsemeat and the active compound preparation of the desired concentration.
After 2 days, the kill in % is determined. 100% means that all the larvae have been killed; 0% means that no larvae have been killed.

Musca domestica = Musca domestica test; format: in vivo; details: application rate 100 ppm, adult houseflies, after 2 days
Method: as §4, §5
Vessels containing a sponge treated with sugar solution and the active compound preparation of the desired concentration are populated with 10 adult houseflies (Musca domestica).
After 2 days, the kill in % is determined. 100% means that all of the flies have been killed; 0% means that none of the flies have been killed.

Rhipicephalus sanguineus = Rhipicephalus sanguineus in vitro contact test with adult brown dog ticks; format: in vivo; details: application rate 500 g/ha (5 μg/cm^2), after 48 h
Method: Rhipicephalus sanguineus—In Vitro Contact Tests with Adult Brown Dog Ticks
as §1
After the solvent has evaporated off, the tubes are populated with 5-10 adult dog ticks (Rhipicephalus sanguineus), sealed with a perforated plastic lid and incubated in a horizontal position in the dark at room temperature and ambient humidity. After 48 h, efficacy is determined. To this end, the ticks are knocked to the floor of the tube and incubated on a hotplate at 45-50° C. for not more than 5 min. Ticks which remain motionless on the floor or move in such an uncoordinated manner that they are unable to deliberately avoid the heat by climbing upwards are considered to be dead or moribund.
An efficacy of 100% means that all the ticks were dead or moribund. 0% efficacy means that none of the ticks had been harmed.

Myzus persicae = Myzus persicae spray test; format: in vivo; details: application rate 100 g/ha, after 6 days
Method: Myzus Persicae—Spray Test […] To produce further test concentrations, the preparation is diluted with emulsifier-containing water. Discs of Chinese cabbage leaves (Brassica pekinensis) infested by all stages of the green peach aphid (Myzus persicae) are sprayed with an active compound preparation of the desired concentration.

| SMILES | efficacy (fleas dead or moribund) (Ctenocephalides felis [1]) [%] | efficacy in % (Phaedon cochleariae) [%] | logP [2] | efficacy (kill in %) (Ctenocephalides felis [3]) [%] | efficacy (laying of fertile eggs) [4] [%] | efficacy (laying of fertile eggs) (Boophilus microplus) [%] | efficacy in % (Spodoptera frugiperda) [%] | efficacy in % (Tetranychus urticae) [%] | efficacy (kill in %) (Lucilia cuprina) [%] | efficacy (kill in %) (Musca domestica) [%] | efficacy (ticks dead or moribund) (Rhipicephalus sanguineus) [%] | efficacy in % (Myzus persicae) [%] |
| --- | --- | --- | --- | --- | --- | --- | --- | --- | --- | --- | --- | --- |
| Cc1ncc(-c2cn(-c3c(Cl)cc(C(F)(C(F)(F)F)C(F)(F)F)cc3Cl)nn2)cc1C(=O)NC1(C#N)CC1 [Example 6] | 100 | 100 | 3.5 | 100 | 100 | 100 | 100 | 100 | 100 | 100 |  |  |
| Cc1cc(C(F)(C(F)(F)F)C(F)(F)F)cc(C)c1-n1cc(-c2cnc(C)c(C(=O)NC3(C#N)CC3)c2)nn1 [Example 12] | 100 | 100 | 3.4 | 100 | 80 | 100 | 100 | 100 | 100 | 100 | 80 | 90 |
| Cc1cc(C(F)(C(F)(F)F)C(F)(F)F)cc(C(F)(F)F)c1-n1cc(-c2cnc(Cl)c(C(=O)NC3CC3)c2)nn1 [Example 13] | 100 | 100 | 3.9 | 100 | 100 | 100 | 100 | 100 | 100 | 100 | 100 | 90 |
| Cc1cc(C(F)(C(F)(F)F)C(F)(F)F)cc(C(F)(F)F)c1-n1cc(-c2cnc(Cl)c(C(=O)NC3(C#N)CC3)c2)nn1 [Example 14] | 80 | 100 | 3.9 | 100 | 100 | 100 | 100 | 100 | 90 | 100 | 100 |  |
| Cc1cc(C(F)(C(F)(F)F)C(F)(F)F)cc(C(F)(F)F)c1-n1cc(-c2cnc(Cl)c(C(=O)N(C)C3CC3)c2)nn1 [Example 15] | 100 | 100 | 4.3 | 100 | 100 | 100 | 100 | 100 | 100 | 100 |  | 90 |
| N#CC1(NC(=O)c2cc(-c3cn(-c4c(Cl)cc(C(F)(C(F)(F)F)C(F)(F)F)cc4C(F)(F)F)nn3)cnc2Cl)CC1 [Example 17] | 100 | 100 | 3.9 | 100 | 100 | 100 |  | 100 | 100 | 100 |  |  |
| CN(C(=O)c1cc(-c2cn(-c3c(Cl)cc(C(F)(C(F)(F)F)C(F)(F)F)cc3OC(F)(F)F)nn2)cnc1Cl)C1CC1 [Example 35] |  | 100 | 4.6 | 100 |  | 100 | 100 | 100 | 100 | 100 |  | 90 |
